Assay results from patent publication US20250129095A1, “ANNULATED 2-AMINO-3-CYANO THIOPHENES AND DERIVATIVES FOR THE TREATMENT OF CANCER” (Boehringer Ingelheim Int'l GmbH Corp., priority 2021, published 2025).

Tests used:
KRAS (G12C)::SOS1 = molecular target: T1, KRAS (G12C)::SOS1 (Homo sapiens, UniProt P01116, C118S/C51S/C80L/G12C); assay: KRAS::SOS1 AlphaScreen binding assay, KRAS G12C; settings: read-out: KRASG12C IC50
T1 construct: KRAS (G12C) 1-169, N-terminal 6His-tag for purification, cleaved off; 6His-tag (N, cleaved yes); made in house
T1 sequence (P01116 1-169 isoform P01116-2 G12C/C51S/C80L/C118S): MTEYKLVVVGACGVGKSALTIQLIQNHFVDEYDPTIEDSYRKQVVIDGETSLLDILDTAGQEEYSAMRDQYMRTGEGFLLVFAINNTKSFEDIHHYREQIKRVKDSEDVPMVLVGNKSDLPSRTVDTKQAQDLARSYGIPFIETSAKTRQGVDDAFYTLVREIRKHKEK
Source text: (§1) This assay can be used to examine the potency with which compounds according to the invention binding to (mutated) KRAS inhibit the protein-protein interaction between SOS1 and (mutated) KRAS e.g., KRAS WT, KRAS G12C, KRAS G12D, KRAS G12V, KRAS G13D. […] Low IC50 values in this assay setting are indicative of strong inhibition of protein-protein interaction between SOS1 and KRAS:
(§2) These assays measure the inhibitory effect of compounds on KRAS mutant protein-protein interactions using the Alpha Screen technology by Perkin Elmer
(§3) The following (mutant) enzyme forms of KRAS and interacting proteins are used in these assays at the given concentrations: • KRAS (G12D) 1-169, N-terminal 6His-tag, C-terminal avi-tag (Xtal BioStructures, Inc.); final assay concentration 10 nM and SOS1 564-1049, N-terminal 229 GST-tag, TEV cleavage site (Viva Biotech Ltd); final assay concentration 5 nM; • KRAS (G12C) 1-169, N-terminal 6His-tag for purification, cleaved off, C-terminal avi-tag, biotinylated, mutations: C51S, C80L, C118S (in house); final assay concentration 7.5 nM and SOS1 564-1049, N-terminal 229 GST-tag, TEV cleavage site (Viva Biotech Ltd); final assay concentration 5 nM; • KRAS (G12V) 1-169, N-terminal 6His-tag for purification, cleaved off, C-terminal avi-tag, biotinylated, TEV cleavage site, mutation: C118S, GDP loaded (in house); final assay concentration 10 nM and SOS1 564-1049, N-terminal 229 GST-tag, TEV cleavage site (Viva Biotech Ltd); final assay concentration 10 nM; • KRAS (G13D) 1-169, N-terminal 6His-tag for purification, cleaved off, C-terminal avi-tag, biotinylated, TEV cleavage site, mutation: C118S, GDP loaded (in house); final assay concentration 10 nM and SOS1 564-1049, N-terminal 229 GST-tag, TEV cleavage site (Viva Biotech Ltd); final assay concentration 10 nM; • KRAS (WT) 1-169, N-terminal 6His-tag for purification, cleaved off, C-terminal avi-tag, biotinylated, TEV cleavage site, mutation: C118S, GDP loaded (in house); final assay concentration 10 nM and SOS1 564-1049, N-terminal 229 GST-tag, TEV cleavage site (Viva Biotech Ltd); final assay concentration 10 nM.
(§4) Test compounds dissolved in DMSO are dispensed onto assay plates (Proxiplate 384 PLUS, white, PerkinElmer; 6008289) using an Access Labcyte Workstation with the Labcyte Echo 55×. For the chosen highest assay concentration of 100 μM, 150 nL of compound solution are transferred from a 10 mM DMSO compound stock solution. A series of eleven fivefold dilutions per compound are transferred to the assay plate, compound dilutions are tested in duplicates. DMSO are added as backfill to a total volume of 150 nL.
(§5) The assays run on a fully automated robotic system in a darkened room below 100 Lux. To 150 nl of compound dilution 10 μl of a mix including KRAS mutant protein, SOS1 (final assay concentrations see above) and GDP nucleotide (Sigma G7127; final assay concentration 10 μM) in assay buffer (1×PBS, 0.1% BSA, 0.05% Tween 20) are added into columns 1-24.
(§6) After 30 minutes incubation time 5 μl of Alpha Screen bead mix in assay buffer are added into columns 1-23. Bead mix consists of AlphaLISA Glutathione Acceptor Beads (PerkinElmer, Cat No AL109) and AlphaScreen Streptavidin Donor Beads (PerkinElmer Cat No 6760002) in assay buffer at a final assay concentration of 10 μg/ml each.
(§7) Plates are kept at room temperature in a darkened incubator. After an additional 60 minutes incubation time the signal is measured in a PerkinElmer Envision HTS Multilabel Reader using the AlphaScreen specs from PerkinElmer.
(§8) Each plate contains up to 16 wells of a negative control depending on the dilution procedure (platewise or serial) (DMSO instead of test compound; with KRAS mutant::SOS1 GDP mix and bead mix; column 23) and 16wells of a positive control (DMSO instead of test compound; with KRAS mutant::SOS1 GDP mix w/o bead mix; column 24).
(§9) As internal control known inhibitors of KRAS mutant::SOS1 interaction can be measured on each compound plate. […]

Caco-2 assay = assay type: in vitro ADME; settings: human, 10 μM test compound, pH 7.4; for Papp A→B at 90 min, 10 μM: Caco-2, apical to basolateral (a-b) permeability, read-out: Caco PappAB; for efflux ratio at 90 min, 10 μM: Caco-2 efflux ratio PappBA/PappAB, read-out: Caco ER
Source text: The assay provides information on the potential of a compound to pass the cell membrane, on the extent of oral absorption as well as on whether the compound is actively transported by uptake and/or efflux transporters. Permeability measurements across polarized, confluent Caco-2 cell monolayers grown on permeable filter supports (Corning, catalog #3391) are used. […] The receiver and donor compartments contain 0.25% bovine serum albumine (BSA) in assay buffer. Passive diffusion and/or active transport of compounds across the monolayer is measured in both apical to basolateral (a-b) and basolateral to apical (b-a) direction. a-b permeability (PappAB) represents drug absorption from the intestine into the blood and b-a permeability (PappBA) drug secretion from the blood back into the intestine via both passive permeability as well as active transport mechanisms mediated by efflux and uptake transporters that are expressed on the Caco-2 cells. After a pre-incubation of 25-30 min at 37° C., at predefined time points (0, 30, 60 and 90 min), samples were taken from the receiver and donor compartment, respectively.
Concentrations of test compounds in samples were measured by HPLC/MS/MS, samples from the donor compartment were diluted 1:50 (v:v) with assay buffer, samples from receiver compartment were measured without dilution.
Apparent permeabilities in a-b (PappAB) and b-a (PappBA) directions are calculated according to the formula:
[formula] • Vrec [mL]: buffer volume in receiver compartment • Cdon [pmol/mL]: concentration of test compound in donor compartment at t=0 • ΔCrec: difference between concentrations of test compound in receiver compartment at start and end of incubation time • Δt: Incubation time • Vrec·ΔCrec/Δt [[…]]: Amount of compound transferred to receiver compartment per time • A [cm^2]: filter surface
Caco-2 efflux ratios (ER) are calculated as the ratio of PappBA/PappAB.

KRAS (G12V)::SOS1 = molecular target: T2, KRAS (G12V)::SOS1 (Homo sapiens, UniProt P01116, C118S/G12V); assay: KRAS::SOS1 AlphaScreen binding assay, KRAS G12V
T2 construct: KRAS (G12V) 1-169, N-terminal 6His-tag for purification, cleaved off; 6His-tag (N, cleaved yes); TEV cleavage site; made in house
T2 sequence (P01116 1-169 isoform P01116-2 G12V/C118S): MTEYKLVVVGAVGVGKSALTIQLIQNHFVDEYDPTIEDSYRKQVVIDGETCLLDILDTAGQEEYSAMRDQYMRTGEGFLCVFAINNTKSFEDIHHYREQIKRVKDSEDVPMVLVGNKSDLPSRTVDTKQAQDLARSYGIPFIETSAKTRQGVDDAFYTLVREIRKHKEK
Source text: as §1, §2, §3, §4, §5, §6, §7, §8, §9

| Structure (SMILES) | IC50 (KRAS (G12C)::SOS1) | Papp A→B at 90 min, 10 μM (Caco-2 assay) | efflux ratio at 90 min, 10 μM (Caco-2 assay) | IC50 (KRAS (G12V)::SOS1) |
| --- | --- | --- | --- | --- |
| C[C@H](Oc1cc(OCCO)nc(-c2noc3c2CCC[C@@]32CCCc3sc(N)c(C#N)c32)n1)[C@@H]1CCCN1C [II-6] | 1 nM | 1.2 ×10⁻⁶ cm/s | 20.8 | – |
| C[C@H](Oc1cc(Oc2cnccn2)nc(-c2noc3c2CCC[C@@]32CCCc3sc(N)c(C#N)c32)n1)[C@@H]1CCCN1C [II-7] | 2 nM | – | – | – |
| C[C@H](Oc1cc(O[C@@H]2CNC2(C)C)nc(-c2noc3c2CCC[C@@]32CCCc3sc(N)c(C#N)c32)n1)[C@@H]1CCCN1C [II-9] | 2 nM | 0.2 ×10⁻⁶ cm/s | 132 | 3 nM |
| C[C@H](Oc1cc(N(C)C)nc(-c2noc3c2CCC[C@@]32CCCc3sc(N)c(C#N)c32)n1)[C@@H]1CCCN1C [II-10] | 2 nM | 7.6 ×10⁻⁶ cm/s | 3 | – |
| C[C@H](Oc1cc(NCC2COC2)nc(-c2noc3c2CCC[C@@]32CCCc3sc(N)c(C#N)c32)n1)[C@@H]1CCCN1C [II-11] | 2 nM | – | – | – |
| C[C@H](Oc1cc(Nc2nccs2)nc(-c2noc3c2CCC[C@@]32CCCc3sc(N)c(C#N)c32)n1)[C@@H]1CCCN1C [II-12] | 4 nM | – | – | – |
| C[C@H](Oc1cc(Nc2cnccn2)nc(-c2noc3c2CCC[C@@]32CCCc3sc(N)c(C#N)c32)n1)[C@@H]1CCCN1C [II-14] | 3 nM | – | – | 3 nM |
| C[C@H](Oc1cc(Nc2ccncn2)nc(-c2noc3c2CCC[C@@]32CCCc3sc(N)c(C#N)c32)n1)[C@@H]1CCCN1C [II-15] | 3 nM | 2 ×10⁻⁶ cm/s | 14.5 | – |
| C[C@H](Oc1cc(Nc2ccccn2)nc(-c2noc3c2CCC[C@@]32CCCc3sc(N)c(C#N)c32)n1)[C@@H]1CCCN1C [II-16] | 2 nM | – | 3.1 | – |
| C[C@H](Oc1cc(Nc2cccnn2)nc(-c2noc3c2CCC[C@@]32CCCc3sc(N)c(C#N)c32)n1)[C@@H]1CCCN1C [II-18] | 2 nM | 1.4 ×10⁻⁶ cm/s | 17.9 | – |
| C[C@H](Oc1cc(O[C@H]2CN(C)C(C)(C)C2)nc(-c2noc3c2CCC[C@@]32CCCc3sc(N)c(C#N)c32)n1)[C@@H]1CCCN1C [II-19] | 4 nM | – | – | – |
| C[C@H](Oc1cc(N(C)CCN(C)C)nc(-c2noc3c2CCC[C@@]32CCCc3sc(N)c(C#N)c32)n1)[C@@H]1CCCN1C [II-20] | 10 nM | 0.8 ×10⁻⁶ cm/s | 38 | – |
| C[C@H](Oc1cc(OCC2(N(C)C)CC2)nc(-c2noc3c2CCC[C@@]32CCCc3sc(N)c(C#N)c32)n1)[C@@H]1CCCN1C [II-21] | 3 nM | – | 1.4 | – |
| C[C@H]1CN(C)CCCN1c1cc(O[C@@H]2CNC2(C)C)nc(-c2noc3c2CCC[C@@]32CCCc3sc(N)c(C#N)c32)n1 [II-28] | 6 nM | – | – | – |
